In US9204643B2, “Temperature stable cloquintocet-mexyl aqueous compositions” (Dow AgroSciences LLC, priority 2012, dated 2015):

Assays:
[1] = Storage of hydrated CQCM/pyroxsulam concentrate two weeks at 54° C., chemical stability; format: physicochemical; conditions: for Chemical Stability: in hydrated CQCM/pyroxsulam concentrate
Method: The aqueous phase was formed by combining water, propylene glycol, antifoam, and wetter surfactant (SYNPERONIC 13/6.5; Croda USA) in a vessel. Powdered anhydrous CQCM was added to the aqueous phase and mixed with a low shear turbine type agitator for 1 hour or until the CQCM was fully converted to the hydrate. A tallow or coco-amine 15 mole ethoxylate (e.g., ETHOMEEN C-25; Akzo Nobel), and MORWET D-425 (Akzo Nobel) were added and mixed in with high shear agitation, followed by the addition of the remaining ingredients shown in Table 4. KELZAN S is a thickener commercially available from CPKelco; Atlanta, Ga. The slurry was then processed through a bead mill to yield the finished product. Short term accelerated storage testing was conducted using freeze/thaw (F/T) conditions during which the temperature was cycled between about −10° C. and 40° C. in a 2 hour period after remaining at −10° C. or 40° C. for 24 hours, as in Example 1. Samples of the composition containing pyroxsulam were also stored for two weeks at 54° C. to evaluate chemical stability of the CQCM […].

[2] = One year storage stability of hydrated CQCM/pyroxsulam concentrate in an unheated shed; format: physicochemical
Method: A 10 L production batch of the composition shown in Table 4 was prepared, dispatched for field trials in Australia, and stored for 1 year in an unheated shed subjected to temperatures ranging from −4° C. to 43° C.

CCCCCC(C)OC(=O)COc1ccc(Cl)c2cccnc12 (stereo not drawn) [CQCM, Cloquintocet-mexyl]
Chemical Analysis (content in concentrate) ([1]; 54° C. (2 weeks)): 13.24 % w/w
Chemical Stability ([1]; 54° C. (2 weeks)): 97%
Chemical Analysis (content in concentrate) ([1]; initial composition): 13.69 % w/w
Chemical Stability: Content ([2]; after 1 year, −4° C. to 43° C.): CQCM: 14.40 % w/w
Chemical Stability: Retention ([2]; after 1 year, −4° C. to 43° C.): CQCM: 102%
Chemical Stability: Content ([2]; initial): CQCM: 14.15 % w/w

COc1cc(OC)n2nc(NS(=O)(=O)c3c(C(F)(F)F)ccnc3OC)nc2n1 [Pyroxsulam]
Chemical Analysis (content in concentrate) ([1]; 54° C. (2 weeks)): 4.73 % w/w
Chemical Stability ([1]; 54° C. (2 weeks)): 102%
Chemical Analysis (content in concentrate) ([1]; initial composition): 4.65 % w/w
Chemical Stability: Content ([2]; after 1 year, −4° C. to 43° C.): Pyroxsulam: 4.84 % w/w
Chemical Stability: Retention ([2]; after 1 year, −4° C. to 43° C.): Pyroxsulam: 104%
Chemical Stability: Content ([2]; initial): Pyroxsulam: 4.65 % w/w
